According to ChEMBL document CHEMBL1201862, “PubChem BioAssay data set” (2004):
Activity calls are given as the source filed them.

Legend:
[1] = target: T1, Rac GTPase-activating protein 1 (Homo sapiens, UniProt Q9H0H5); experiment: blockers of MgcRacGAP-driven Rac1 GTP hydrolysis – biochemical, ADP Hunter fluorescence, primary and confirmatory, confirmation (AID 624330); assay type: functional
T1 sequence (Q9H0H5 whole entry): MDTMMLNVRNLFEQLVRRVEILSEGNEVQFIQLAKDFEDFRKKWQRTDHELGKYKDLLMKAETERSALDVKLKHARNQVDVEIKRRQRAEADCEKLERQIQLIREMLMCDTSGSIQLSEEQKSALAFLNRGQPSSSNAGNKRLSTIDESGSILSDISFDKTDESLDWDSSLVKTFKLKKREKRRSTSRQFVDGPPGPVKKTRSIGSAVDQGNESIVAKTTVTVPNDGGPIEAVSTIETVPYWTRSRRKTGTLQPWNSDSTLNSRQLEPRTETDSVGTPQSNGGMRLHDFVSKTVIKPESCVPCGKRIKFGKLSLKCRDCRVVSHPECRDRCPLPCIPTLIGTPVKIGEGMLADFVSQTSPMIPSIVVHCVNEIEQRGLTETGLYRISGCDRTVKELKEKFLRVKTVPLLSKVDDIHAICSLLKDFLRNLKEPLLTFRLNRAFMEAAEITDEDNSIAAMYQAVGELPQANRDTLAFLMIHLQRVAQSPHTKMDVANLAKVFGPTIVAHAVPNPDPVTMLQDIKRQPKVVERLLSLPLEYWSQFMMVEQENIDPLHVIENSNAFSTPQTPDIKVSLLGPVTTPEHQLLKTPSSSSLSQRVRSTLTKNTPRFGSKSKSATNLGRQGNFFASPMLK

[2] = Luminescence Cell-Based Dose Retest to Confirm Inhibitors of Cancer Stem Cells. [Related pubchem assays (depositor defined):AID2717, AID2721]; assay type: functional; settings: Homo sapiens
[3] = target: FAD-linked sulfhydryl oxidase ALR (Homo sapiens, UniProt P55789); experiment: ALR-catalysed DTT oxidation blockers – biochemical, H2O2 detection, luminescence, cherry-pick, dose response (AID 493248)
Protein RecA = target: T2, Protein RecA (Mycobacterium tuberculosis, UniProt P9WHJ3); experiment: Fluorescence Cell-Free Homogeneous Dose Retest to Identify Inhibitors of RecA-Intein Splicing Activity. [Related pubchem assays (depositor defined):AID2097, AID2223, AID489010, AID492950]; assay type: functional
T2 sequence (P9WHJ3 whole entry): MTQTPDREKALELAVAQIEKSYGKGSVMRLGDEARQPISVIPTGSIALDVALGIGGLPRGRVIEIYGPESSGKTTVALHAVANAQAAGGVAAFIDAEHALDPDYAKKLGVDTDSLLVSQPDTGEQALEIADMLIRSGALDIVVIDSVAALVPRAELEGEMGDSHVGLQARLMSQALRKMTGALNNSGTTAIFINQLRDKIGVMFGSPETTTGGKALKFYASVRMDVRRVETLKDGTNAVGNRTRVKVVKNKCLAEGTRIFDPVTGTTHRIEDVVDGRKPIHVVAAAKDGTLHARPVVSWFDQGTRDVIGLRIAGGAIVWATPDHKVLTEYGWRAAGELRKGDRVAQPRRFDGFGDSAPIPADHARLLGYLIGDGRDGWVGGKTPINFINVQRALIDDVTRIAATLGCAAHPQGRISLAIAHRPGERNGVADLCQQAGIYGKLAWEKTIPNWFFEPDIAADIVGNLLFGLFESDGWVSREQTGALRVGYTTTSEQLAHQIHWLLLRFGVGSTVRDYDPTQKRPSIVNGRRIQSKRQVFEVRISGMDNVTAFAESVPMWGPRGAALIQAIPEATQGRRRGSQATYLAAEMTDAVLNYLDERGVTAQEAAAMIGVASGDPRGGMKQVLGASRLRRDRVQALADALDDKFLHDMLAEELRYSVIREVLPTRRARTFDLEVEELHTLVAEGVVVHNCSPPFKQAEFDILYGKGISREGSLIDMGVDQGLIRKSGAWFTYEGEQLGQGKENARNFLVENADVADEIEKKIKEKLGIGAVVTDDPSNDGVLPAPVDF

[4] = target: T3, Replicative DNA helicase DnaB (Mycobacterium tuberculosis, UniProt P9WMR3); experiment: DnaB intein splicing inhibitors, dose response, biochemical, cell-free fluorescence (AID 449749); assay type: functional
T3 sequence (P9WMR3 whole entry): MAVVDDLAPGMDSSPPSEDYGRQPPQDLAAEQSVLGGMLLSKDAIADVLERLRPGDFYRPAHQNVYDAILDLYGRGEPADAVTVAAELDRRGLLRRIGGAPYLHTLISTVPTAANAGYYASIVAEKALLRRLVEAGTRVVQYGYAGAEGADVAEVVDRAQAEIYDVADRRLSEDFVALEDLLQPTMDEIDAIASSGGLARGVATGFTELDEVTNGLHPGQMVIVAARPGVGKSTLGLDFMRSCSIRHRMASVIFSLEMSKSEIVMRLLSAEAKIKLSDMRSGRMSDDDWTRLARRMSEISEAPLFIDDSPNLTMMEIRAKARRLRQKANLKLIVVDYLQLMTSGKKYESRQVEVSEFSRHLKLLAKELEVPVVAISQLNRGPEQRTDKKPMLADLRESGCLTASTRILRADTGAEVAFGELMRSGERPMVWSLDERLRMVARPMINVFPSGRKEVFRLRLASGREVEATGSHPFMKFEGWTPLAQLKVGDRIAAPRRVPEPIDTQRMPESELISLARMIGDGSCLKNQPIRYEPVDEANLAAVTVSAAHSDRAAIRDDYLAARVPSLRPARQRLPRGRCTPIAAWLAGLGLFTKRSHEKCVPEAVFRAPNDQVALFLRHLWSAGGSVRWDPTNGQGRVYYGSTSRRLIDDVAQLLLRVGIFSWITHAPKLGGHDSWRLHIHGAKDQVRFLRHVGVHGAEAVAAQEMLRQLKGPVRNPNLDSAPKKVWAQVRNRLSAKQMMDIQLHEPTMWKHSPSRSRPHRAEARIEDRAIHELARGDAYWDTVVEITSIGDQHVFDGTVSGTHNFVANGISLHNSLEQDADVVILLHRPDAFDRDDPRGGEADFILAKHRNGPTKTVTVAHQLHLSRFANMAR

Streptokinase A = target: T4, Streptokinase A (Streptococcus pyogenes serotype M1, UniProt P10520); experiment: viability-normalized secreted streptokinase activity reduction – plasminogen activation absorbance, OD405, dose response (AID 1914); assay type: functional, Streptococcus pyogenes M1 GAS;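 further: secreted streptokinase activity via plasminogen activation per viability signal from cell pellet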
T4 sequence (P10520 whole entry): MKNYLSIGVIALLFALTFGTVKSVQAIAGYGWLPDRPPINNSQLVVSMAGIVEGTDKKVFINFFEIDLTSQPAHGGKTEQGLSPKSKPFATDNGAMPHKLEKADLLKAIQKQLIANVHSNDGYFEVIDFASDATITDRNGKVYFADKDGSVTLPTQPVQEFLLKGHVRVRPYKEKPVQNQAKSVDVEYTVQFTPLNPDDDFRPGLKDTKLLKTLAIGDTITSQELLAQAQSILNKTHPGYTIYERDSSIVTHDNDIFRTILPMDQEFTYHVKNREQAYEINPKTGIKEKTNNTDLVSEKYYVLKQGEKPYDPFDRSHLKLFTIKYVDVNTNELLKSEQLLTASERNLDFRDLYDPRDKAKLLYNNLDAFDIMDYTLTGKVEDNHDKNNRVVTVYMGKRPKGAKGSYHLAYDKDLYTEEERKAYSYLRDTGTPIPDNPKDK

[5] = test system: Streptococcus sp. 'group A'; experiment: Streptococcus pyogenes SK(-)GAS viability under kanamycin – luminescence, BacTiterGlo, confirmation, counter-screen for streptokinase expression inhibitor project, dose response (AID 1900); assay type: functional, organism-based
Streptococcus = experiment: GAS UMAA2166 growth inhibition – luminescence, BacTiterGlo, counter-screen for streptokinase expression inhibitor project, dose response (AID 1915); assay type: functional, organism-based;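 further: potency for reduction of bacterial viability or growth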
[6] = microbe, parasite or virus in culture; assay type: functional; settings: Mycobacterium tuberculosis
[7] = NIH-3T3 fibroblast cytotoxicity, dose response, cytotoxicity control, cell-based, fluorescence, Alamar Blue, secondary assay (AID 2327); assay type: functional;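 further: NIH-3T3 mouse fibroblasts cultured with fluconazole at 8 µg/mL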
[8] = fluconazole-exposed Candida albicans growth modulators – fluorescence, retest, confirmation (AID 2467); assay type: functional, cell-based
INS1 = experiment: INS-1E survival protection against cytokine death – cell-based, luminescence, retest, dose response (AID 449756); assay type: functional; settings: Rattus norvegicus;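 further: cell death triggered by IL-1 beta plus TNF-alpha plus IFN-gamma mixture; protective hits raise ATP signal compared with cytokine alone wells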
Paired box protein Pax-8 = Paired box protein Pax-8 (Homo sapiens, UniProt Q06710); experiment: PAX8 transcriptional activity inhibition in RMG-I – RMG-I cells, luciferase, cherry-pick, dose response (AID 687027); assay type: functional, cell-based;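 further: luciferase reporter driven by Pax8 target thyroperoxidase promoter measured by SteadyGlo luminescence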
Paired box protein Pax-8, sequence (Q06710 whole entry): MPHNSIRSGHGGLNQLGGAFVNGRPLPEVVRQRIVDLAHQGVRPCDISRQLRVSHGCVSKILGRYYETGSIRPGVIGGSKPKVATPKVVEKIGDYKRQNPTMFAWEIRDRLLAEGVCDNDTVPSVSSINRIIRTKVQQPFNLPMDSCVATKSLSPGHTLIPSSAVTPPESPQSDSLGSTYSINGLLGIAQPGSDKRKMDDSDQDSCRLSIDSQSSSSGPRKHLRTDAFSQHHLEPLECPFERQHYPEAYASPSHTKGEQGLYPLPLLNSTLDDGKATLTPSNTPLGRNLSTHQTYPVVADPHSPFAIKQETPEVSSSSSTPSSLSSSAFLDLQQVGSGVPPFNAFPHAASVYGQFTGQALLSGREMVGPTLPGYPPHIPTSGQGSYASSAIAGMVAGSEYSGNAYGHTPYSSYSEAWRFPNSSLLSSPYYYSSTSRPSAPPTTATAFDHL

FAD-linked sulfhydryl oxidase ALR, sequence (P55789 whole entry): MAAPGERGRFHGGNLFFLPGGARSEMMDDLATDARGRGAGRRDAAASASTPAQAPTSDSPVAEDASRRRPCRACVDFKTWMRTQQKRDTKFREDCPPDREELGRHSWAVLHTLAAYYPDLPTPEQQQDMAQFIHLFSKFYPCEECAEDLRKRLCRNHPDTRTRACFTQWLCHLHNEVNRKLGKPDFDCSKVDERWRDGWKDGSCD

COc1cc(/C=C/C(=O)OCC(=O)Nc2cc(S(=O)(=O)N3CCCCC3)ccc2C)ccc1O
IC50 [1]: 68.1 µM (active)

c1ccc(NNC2=NCCCCC2)cc1
AC50 [2]: 0.898 µM (active)
AC50 [3]: 0.596 µM (active)

COc1ccc(/C=C2/C(=O)N(Cc3ccccc3)N=C2C)cc1
EC50 (Protein RecA): 1.91 µM (active)
AC50 [4]: 4.12 µM (active)

Cc1ccc(CN=C(S)Nc2ccc(NS(=O)(=O)c3ccc(C)cc3)cc2)cc1
EC50 (Streptokinase A): > 150 µM (not active)
EC50 [5]: 9.78 µM (active)
EC50 (Streptococcus): 17.6 µM (active)

O=C(NC(=S)N1CCN(c2ccc(F)cc2)CC1)C12CC3CC(CC(C3)C1)C2
EC50 (Streptokinase A): > 150 µM (not active)
EC50 [5]: 29.7 µM (active)
EC50 (Streptococcus): > 150 µM (not active)

CCc1ccc2nc(N3C(=O)C(O)=C(C(=O)c4ccco4)C3c3cccs3)sc2c1 (centres undefined)
CC50 [6]: > 40 µM (active)
EC50 (Streptokinase A): > 150 µM (not active)
EC50 [5]: 2.2 µM (active)
EC50 (Streptococcus): 7.12 µM (active)

Cc1ccc(Oc2ccc3c(c2)C(=O)N(c2ccc(S(=O)(=O)Nc4nccs4)cc2)C3=O)cc1
EC50 (Streptokinase A): > 150 µM (not active)
EC50 [5]: 9.43 µM (active)
EC50 (Streptococcus): 20 µM (active)

CC(NS(=O)(=O)/C=C/c1ccccc1)C(=O)O (centres undefined)
EC50 (Streptokinase A): > 150 µM (not active)
EC50 [5]: > 150 µM (not active)
EC50 (Streptococcus): > 150 µM (not active)

CCn1c(CN2CCCCCC2=O)nnc1SCc1cnc(-c2ccccc2)s1
EC50 [7]: 68 µM (inconclusive)
EC50 [8]: 1.47 µM (active)

Cc1ccc(C2=NN=C(NC(=O)CSc3nncn3C)SC2)cc1
IC50 [1]: 256 µM (active)

O=C(CN1CCN(Cc2ccccc2)CC1)NC(c1ccccc1)c1ccccc1
IC50 [1]: 77.1 µM (active)

Brc1ccc(OCCCN2CCOCC2)cc1
IC50 [1]: 123 µM (active)

O=C(CNS(=O)(=O)c1ccc(Br)s1)NCC1COc2ccccc2O1 (centres undefined)
EC50 [7]: > 150 µM (inactive)
EC50 [8]: > 38 µM (not active)

CCCCn1c(=O)c(C(=O)NCc2ccccc2Cl)c(O)c2ccccc21
EC50 (Streptokinase A): 5.97 µM (inconclusive)
EC50 [5]: 54.8 µM (active)
EC50 (Streptococcus): > 150 µM (not active)

COc1ccc(CN2CCN(CCSc3ccc(C)cc3)CC2)c(OC)c1OC
AC50 (INS1): > 260 µM (inactive)
IC50 [1]: 80 µM (active)

COc1ccc(C2c3ccc(O)cc3Oc3ncn4nc(-c5ccncc5)nc4c32)cc1OC (centres undefined)
EC50 (Streptokinase A): > 150 µM (not active)
EC50 [5]: 4.67 µM (active)
EC50 (Streptococcus): 27.9 µM (active)

COc1ccc(/C=C/C(=O)N(c2ccccn2)C2CCCCC2)cc1OC
EC50 [7]: > 150 µM (inactive)
EC50 [8]: > 38 µM (not active)

COc1ccc(C(=O)Nc2ccccc2C(=O)Nc2ccccc2C(=O)O)cc1
EC50 [7]: > 160 µM (inactive)
EC50 [8]: 3.49 µM (active)

CC(=O)c1c(C)nc(-c2cccc([N+](=O)[O-])c2)n1O
EC50 [7]: 69.2 µM (active)
EC50 [8]: 4.84 µM (active)

CS(=O)(=O)Nc1ccc(C(=O)Nc2ccccc2C(=O)NCc2ccco2)cc1
EC50 (Streptokinase A): > 150 µM (not active)
EC50 [5]: > 150 µM (not active)
EC50 (Streptococcus): > 150 µM (not active)

C[C@H]([C@@H](N)C(=O)N[C@@H](C(=O)O)[C@@H]1O[C@H](n2ccc(=O)[nH]c2=O)[C@@H](O)[C@H]1O)[C@@H](O)c1ccc(O)cn1
EC50 [7]: > 150 µM (inactive)
EC50 [8]: 3.67 µM (active)

O=C1CC/[N+](=C\c2ccc(Cl)cc2)[N-]1
EC50 (Protein RecA): 3.64 µM (active)
AC50 [4]: 150 µM (active)

CCN=C(S)Nc1cc2oc3ccccc3c2cc1OC
IC50 [1]: 99.9 µM (active)

O=C(COC(=O)c1ccco1)Nc1cccc(S(=O)(=O)N2CCOCC2)c1
AC50 (Paired box protein Pax-8): 62.1 µM (active)

C[C@@H]1CN([C@@H](C)CO)C(=O)c2cc(NC(=O)Nc3ccc4c(c3)OCO4)ccc2O[C@@H]1CN(C)C(=O)Nc1ccc(C(F)(F)F)cc1
AC50 (Paired box protein Pax-8): 11.1 µM (active)

COc1ccccc1/N=C1\C(Cl)=C(O)OC1OC(=O)c1ccco1 (centres undefined)
EC50 (Protein RecA): 13.4 µM (active)
AC50 [4]: 12.5 µM (active)
